From ChEMBL document CHEMBL1255373, “In vitro antibacterial activity of CE-156811, a novel analog derived from hygromycin A” (2008)

How the values were obtained:
Type in all cases: functional
Staphylococcus aureus [1] = test: Antibacterial activity against methicillin-susceptible Staphylococcus aureus clinical isolate by broth microdilution method
Staphylococcus aureus [2] = test: Antibacterial activity against methicillin-resistant Staphylococcus aureus clinical isolate by broth microdilution method
Staphylococcus aureus [3] = test: Antibacterial activity against glycopeptide-intermediate Staphylococcus aureus clinical isolate by broth microdilution method
[4] = system: Staphylococcus epidermidis; test: Antibacterial activity against methicillin-susceptible Staphylococcus epidermidis clinical isolate by broth microdilution method
Staphylococcus = test: Antibacterial activity against coagulase-negative Staphylococcus clinical isolate by broth microdilution method
Enterococcus faecalis [5] = test: Antibacterial activity against vancomycin-susceptible Enterococcus faecalis clinical isolate by broth microdilution method
Enterococcus faecalis [6] = test: Antibacterial activity against vancomycin-resistant Enterococcus faecalis clinical isolate by broth microdilution method
Enterococcus faecium [7] = test: Antibacterial activity against vancomycin-susceptible Enterococcus faecium clinical isolate by broth microdilution method
Enterococcus faecium [8] = test: Antibacterial activity against vancomycin-resistant Enterococcus faecium clinical isolate by broth microdilution method
Streptococcus pneumoniae [9] = test: Antibacterial activity against penicillin-susceptible Streptococcus pneumoniae clinical isolate by broth microdilution method
Streptococcus pneumoniae [10] = test: Antibacterial activity against penicillin-nonsusceptible Streptococcus pneumoniae clinical isolate by broth microdilution method
Streptococcus pyogenes [11] = test: Antibacterial activity against Streptococcus pyogenes clinical isolate by broth microdilution method
Listeria monocytogenes = test: Antibacterial activity against Listeria monocytogenes clinical isolate by broth microdilution method
Corynebacterium sp. = test: Antibacterial activity against Corynebacterium sp. by broth microdilution method
Neisseria sp. = test: Antibacterial activity against Neisseria sp. by broth microdilution method
Moraxella catarrhalis = test: Antibacterial activity against Moraxella catarrhalis clinical isolate by broth microdilution method
Haemophilus influenzae = test: Antibacterial activity against Haemophilus influenzae clinical isolate by broth microdilution method
Citrobacter koseri = test: Antibacterial activity against Citrobacter diversus clinical isolate by broth microdilution method
Citrobacter freundii = test: Antibacterial activity against Citrobacter freundii clinical isolate by broth microdilution method
Klebsiella aerogenes = test: Antibacterial activity against Enterobacter aerogenes clinical isolate by broth microdilution method
Enterobacter cloacae = test: Antibacterial activity against Enterobacter cloacae clinical isolate by broth microdilution method
Escherichia coli = test: Antibacterial activity against Escherichia coli clinical isolate by broth microdilution method
Klebsiella oxytoca = test: Antibacterial activity against Klebsiella oxytoca clinical isolate by broth microdilution method
Klebsiella pneumoniae [12] = test: Antibacterial activity against Klebsiella pneumoniae clinical isolate by broth microdilution method
Klebsiella pneumoniae [13] = test: Antibacterial activity against extended-spectrum beta-lactamase producing Klebsiella pneumoniae clinical isolate by broth microdilution method
Serratia marcescens = test: Antibacterial activity against Serratia marcescens clinical isolate by broth microdilution method
Proteus mirabilis = test: Antibacterial activity against Proteus mirabilis clinical isolate by broth microdilution method
Proteus vulgaris = test: Antibacterial activity against Proteus vulgaris clinical isolate by broth microdilution method
Morganella morganii = test: Antibacterial activity against Morganella morganii clinical isolate by broth microdilution method
Providencia rettgeri = test: Antibacterial activity against Providencia rettgeri clinical isolate by broth microdilution method
Salmonella sp. = test: Antibacterial activity against Salmonella sp. by broth microdilution method
Shigella sp. = test: Antibacterial activity against Shigella sp. by broth microdilution method
Pseudomonas aeruginosa = test: Antibacterial activity against Pseudomonas aeruginosa clinical isolate by broth microdilution method
Burkholderia cepacia = test: Antibacterial activity against Burkholderia cepacia clinical isolate by broth microdilution method
Acinetobacter sp. = test: Antibacterial activity against Acinetobacter sp. by broth microdilution method
[14] = system: Stenotrophomonas maltophilia; test: Antibacterial activity against Stenotrophomonas maltophilia clinical isolate by broth microdilution method
Legionella pneumophila = test: Antibacterial activity against Legionella pneumophila clinical isolate by broth microdilution method
Staphylococcus aureus [15] = test: Antibacterial activity against […] Staphylococcus aureus ATCC 29213 by broth microdilution method
Staphylococcus aureus [16] = test: Antibacterial activity against linezolid-resistant Staphylococcus aureus 01A1220 by broth microdilution method
Staphylococcus aureus [17] = test: Antibacterial activity against linezolid-resistant Staphylococcus aureus 01A1221 by broth microdilution method
Enterococcus faecalis [18] = test: Antibacterial activity against […] Enterococcus faecalis ATCC 29212 by broth microdilution method
Enterococcus faecalis [19] = test: Antibacterial activity against linezolid-resistant Enterococcus faecalis 03A1128 by broth microdilution method
Enterococcus faecium [20] = test: Antibacterial activity against linezolid-resistant Enterococcus faecium 03B1073 by broth microdilution method
Enterococcus faecium [21] = test: Antibacterial activity against linezolid-resistant Enterococcus faecium 03B1077 by broth microdilution method
Enterococcus faecium [22] = test: Antibacterial activity against linezolid-resistant Enterococcus faecium 03B1074 by broth microdilution method
Enterococcus faecium [23] = test: Antibacterial activity against linezolid-resistant Enterococcus faecium 03B1075 by broth microdilution method
Enterococcus faecium [24] = test: Antibacterial activity against linezolid-resistant Enterococcus faecium 03B1078 by broth microdilution method
Enterococcus faecium [25] = test: Antibacterial activity against linezolid-resistant Enterococcus faecium 03B1076 by broth microdilution method
Staphylococcus aureus [26] = test: Antibacterial activity against methicillin-resistant Staphylococcus aureus 01A1095 by broth microdilution method
Enterococcus faecium [27] = test: Antibacterial activity against vancomycin-resistant Enterococcus faecium 03B1022 by broth microdilution method
Streptococcus pyogenes [28] = test: Antibacterial activity against Streptococcus pyogenes 02C0203 by broth microdilution method
Streptococcus pneumoniae [29] = test: Antibacterial activity against Streptococcus pneumoniae 02J1046 by broth microdilution method
Staphylococcus aureus [30] = test: Bacteriostatic activity against methicillin-resistant Staphylococcus aureus 01A1095 assessed as log reduction in bacterial growth at 1 to 8 times MIC after 24 hrs
Enterococcus faecium [31] = test: Bacteriostatic activity against vancomycin resistant Enterococcus faecium 03B1022 assessed as log reduction in bacterial growth at 1 to 8 times MIC after 24 hrs
Streptococcus pyogenes [32] = test: Bacteriostatic activity against Streptococcus pyogenes 02C0203 assessed as log reduction in bacterial growth at 1 to 8 times MIC after 24 hrs
Streptococcus pneumoniae [33] = test: Bacteriostatic activity against Streptococcus pneumoniae 02J1046 assessed as log reduction in bacterial growth at 1 to 8 times MIC after 24 hrs

C/C(=C\c1cc(F)c(OC[C@H](F)C2CC2)cc1F)C(=O)N[C@@H]1[C@H](O)[C@@H](O)[C@H]2OCO[C@H]2[C@@H]1O
8 µg/mL: MIC90 (Listeria monocytogenes) | MIC90 (Neisseria sp.) | MIC90 (Haemophilus influenzae) | MIC (Enterococcus faecium [25])
> 64 µg/mL: MIC50 (Citrobacter koseri) | MIC90 (Citrobacter koseri) | MIC50 (Citrobacter freundii) | MIC90 (Citrobacter freundii) | MIC50 (Klebsiella aerogenes) | MIC90 (Klebsiella aerogenes) | MIC50 (Enterobacter cloacae) | MIC90 (Enterobacter cloacae) | MIC50 (Escherichia coli) | MIC90 (Escherichia coli) | MIC50 (Klebsiella oxytoca) | MIC90 (Klebsiella oxytoca) | MIC50 (Klebsiella pneumoniae [12]) | MIC90 (Klebsiella pneumoniae [12]) | MIC50 (Klebsiella pneumoniae [13]) | MIC90 (Klebsiella pneumoniae [13]) | MIC50 (Serratia marcescens) | MIC90 (Serratia marcescens) | MIC50 (Proteus mirabilis) | MIC90 (Proteus mirabilis) | MIC50 (Proteus vulgaris) | MIC90 (Proteus vulgaris) | MIC50 (Morganella morganii) | MIC90 (Morganella morganii) | MIC50 (Providencia rettgeri) | MIC90 (Providencia rettgeri) | MIC50 (Salmonella sp.) | MIC90 (Salmonella sp.) | MIC50 (Shigella sp.) | MIC90 (Shigella sp.) | MIC50 (Pseudomonas aeruginosa) | MIC90 (Pseudomonas aeruginosa) | MIC50 (Burkholderia cepacia) | MIC90 (Burkholderia cepacia) | MIC50 (Acinetobacter sp.) | MIC90 (Acinetobacter sp.) | MIC50 [14] | MIC90 [14]
4 µg/mL: MIC (Listeria monocytogenes) | MIC50 (Listeria monocytogenes) | MIC50 (Neisseria sp.) | MIC90 (Moraxella catarrhalis) | MIC50 (Haemophilus influenzae) | MIC (Enterococcus faecium [22]) | MIC (Enterococcus faecium [23]) | MIC (Enterococcus faecium [24])
16 µg/mL: MIC (Staphylococcus aureus [16]) | MIC (Staphylococcus aureus [17]) | MIC (Enterococcus faecalis [19])
0.5 µg/mL: MIC50 (Staphylococcus aureus [1]) | MIC50 (Staphylococcus aureus [2]) | MIC90 (Staphylococcus aureus [2]) | MIC90 (Streptococcus pneumoniae [9]) | MIC90 (Streptococcus pneumoniae [10]) | MIC (Streptococcus pyogenes [11]) | MIC50 (Streptococcus pyogenes [11])
2 µg/mL: MIC90 (Staphylococcus) | MIC90 (Enterococcus faecalis [5]) | MIC90 (Enterococcus faecalis [6]) | MIC90 (Enterococcus faecium [7]) | MIC90 (Enterococcus faecium [8]) | MIC50 (Moraxella catarrhalis) | MIC90 (Legionella pneumophila) | MIC (Enterococcus faecium [21])
0.25 µg/mL: MIC90 [4] | MIC50 (Streptococcus pneumoniae [9]) | MIC50 (Streptococcus pneumoniae [10]) | MIC (Streptococcus pyogenes [28])
1.5: FC (Staphylococcus aureus [30]) | FC (Enterococcus faecium [31]) | FC (Streptococcus pyogenes [32]) | FC (Streptococcus pneumoniae [33])
0.125 µg/mL: MIC (Staphylococcus aureus [3]) | MIC (Streptococcus pneumoniae [29])
1 µg/mL: MIC90 (Staphylococcus aureus [1]) | MIC50 (Staphylococcus) | MIC50 (Enterococcus faecalis [5]) | MIC50 (Enterococcus faecalis [6]) | MIC50 (Enterococcus faecium [7]) | MIC50 (Enterococcus faecium [8]) | MIC90 (Streptococcus pyogenes [11]) | MIC50 (Corynebacterium sp.) | MIC90 (Corynebacterium sp.) | MIC50 (Legionella pneumophila) | MIC (Staphylococcus aureus [15]) | MIC (Enterococcus faecalis [18]) | MIC (Enterococcus faecium [20]) | MIC (Staphylococcus aureus [26]) | MIC (Enterococcus faecium [27])
0.12 µg/mL: MIC50 [4]
